Measurements reported in ChEMBL document CHEMBL5303573, “Mapping human microbiome drug metabolism by gut bacteria and their genes” (Nature, 2019).

Key:
[1] = The drug is tested on Bifidobacterium longum subsp. Infantis strain: CCUG52486 for biotransformation. The drug concentrations were measured before and after a 12-h incubation by liquid-chromatography-coupled mass spectrometry (LC–MS); conditions: 2 µM
[2] = The drug is tested on Bacteroides fragilis strain: HMW610 for biotransformation. The drug concentrations were measured before and after a 12-h incubation by liquid-chromatography-coupled mass spectrometry (LC–MS); conditions: 2 µM
[3] = The drug is tested on Bacteroides pectinophilus strain: ATCC43243 for biotransformation. The drug concentrations were measured before and after a 12-h incubation by liquid-chromatography-coupled mass spectrometry (LC–MS); conditions: 2 µM
[4] = The drug is tested on Parabacteroides merdae strain: ATCC43184 for biotransformation. The drug concentrations were measured before and after a 12-h incubation by liquid-chromatography-coupled mass spectrometry (LC–MS); conditions: 2 µM
[5] = The drug is tested on Clostridium asparagiforme strain: DSM15981 for biotransformation. The drug concentrations were measured before and after a 12-h incubation by liquid-chromatography-coupled mass spectrometry (LC–MS); format: ADME; parameters: dose 2 uM, timepoint 0 vs 12 hours; conditions: enterocloster asparagiformis, 2 µM
[6] = The drug is tested on Clostridium ramosum strain: DSM1402 for biotransformation. The drug concentrations were measured before and after a 12-h incubation by liquid-chromatography-coupled mass spectrometry (LC–MS); conditions: thomasclavelia ramosa, 2 µM
[7] = The drug is tested on Clostridium symbiosum strain: ATCC14940 for biotransformation. The drug concentrations were measured before and after a 12-h incubation by liquid-chromatography-coupled mass spectrometry (LC–MS); conditions: 2 µM
[8] = The drug is tested on Eubacterium ventriosum strain: ATCC27560 for biotransformation. The drug concentrations were measured before and after a 12-h incubation by liquid-chromatography-coupled mass spectrometry (LC–MS); format: ADME; parameters: dose 2 uM, timepoint 0 vs 12 hours; conditions: 2 µM
[9] = The drug is tested on Ruminococcus torques strain: ATCC27756 for biotransformation. The drug concentrations were measured before and after a 12-h incubation by liquid-chromatography-coupled mass spectrometry (LC–MS); format: ADME; parameters: dose 2 uM, timepoint 0 vs 12 hours; conditions: 2 µM
[10] = The drug is tested on Enterobacter cancerogenus strain: ATCC35316 for biotransformation. The drug concentrations were measured before and after a 12-h incubation by liquid-chromatography-coupled mass spectrometry (LC–MS); conditions: 2 µM
[11] = The drug is tested on Escherichia coli strain: BW25113 for biotransformation. The drug concentrations were measured before and after a 12-h incubation by liquid-chromatography-coupled mass spectrometry (LC–MS); conditions: 2 µM
[12] = bacteroides fragilis, 12 h, 2 µM
Description: The drug is tested on Bacteroides fragilis strain: DS-208 for biotransformation. The drug concentrations were measured before and after a 12-h incubation by liquid-chromatography-coupled mass spectrometry (LC–MS)

[13] = bacteroides intestinalis, 12 h, 2 µM
Description: The drug is tested on Bacteroides intestinalis strain: DSM17393 for biotransformation. The drug concentrations were measured before and after a 12-h incubation by liquid-chromatography-coupled mass spectrometry (LC–MS)

[14] = bacteroides stercoris, 12 h, 2 µM
Description: The drug is tested on Bacteroides stercoris strain: ATCC43183 for biotransformation. The drug concentrations were measured before and after a 12-h incubation by liquid-chromatography-coupled mass spectrometry (LC–MS)

[15] = anaerostipes sp., 12 h, 2 µM
Description: The drug is tested on Anaerostipes sp. strain: fecal isolate for biotransformation. The drug concentrations were measured before and after a 12-h incubation by liquid-chromatography-coupled mass spectrometry (LC–MS)

[16] = The drug is tested on Alistipes indistinctus strain: DSM22520 for biotransformation. The drug concentrations were measured before and after a 12-h incubation by liquid-chromatography-coupled mass spectrometry (LC–MS); conditions: 2 µM
[17] = The drug is tested on Bacteroides dorei strain: DSM17855 for biotransformation. The drug concentrations were measured before and after a 12-h incubation by liquid-chromatography-coupled mass spectrometry (LC–MS); conditions: phocaeicola dorei, 2 µM
[18] = The drug is tested on Bacteroides vulgatus strain: ATCC8482 for biotransformation. The drug concentrations were measured before and after a 12-h incubation by liquid-chromatography-coupled mass spectrometry (LC–MS); conditions: phocaeicola vulgatus, 2 µM
[19] = enterocloster bolteae, 12 h, 2 µM
Description: The drug is tested on Clostridium bolteae strain: ATCCBAA-613 for biotransformation. The drug concentrations were measured before and after a 12-h incubation by liquid-chromatography-coupled mass spectrometry (LC–MS)

Structure (SMILES)	Bacterial Biotransformation [1]	Bacterial Biotransformation [2]	Bacterial Biotransformation [3]	Bacterial Biotransformation [4]	Bacterial Biotransformation [5]	Bacterial Biotransformation [6]	Bacterial Biotransformation [7]	Bacterial Biotransformation [8]	Bacterial Biotransformation [9]	Bacterial Biotransformation [10]	Bacterial Biotransformation [11]	Bacterial Biotransformation [12]	Bacterial Biotransformation [13]	Bacterial Biotransformation [14]	Bacterial Biotransformation [15]	Bacterial Biotransformation [16]	Bacterial Biotransformation [17]	Bacterial Biotransformation [18]	Bacterial Biotransformation [19]
CCN(C)C(=O)Oc1cccc([C@H](C)N(C)C)c1.O=C(O)C(O)C(O)C(=O)O [RIVASTIGMINE TARTRATE]	Compound NOT metabolized	Compound NOT metabolized	Compound NOT metabolized	Compound NOT metabolized	Compound NOT metabolized	Compound NOT metabolized	Compound NOT metabolized	Compound NOT metabolized	Compound NOT metabolized	Compound NOT metabolized	Compound NOT metabolized	Compound NOT metabolized	Compound NOT metabolized	Compound NOT metabolized	Compound NOT metabolized	–	–	–	–
Nc1c2c(nc3ccccc13)CCCC2 [TACRINE]	Compound NOT metabolized	–	Compound NOT metabolized	–	Compound NOT metabolized	Compound NOT metabolized	Compound NOT metabolized	Compound NOT metabolized	Compound NOT metabolized	Compound NOT metabolized	–	Compound NOT metabolized	Compound NOT metabolized	Compound NOT metabolized	Compound NOT metabolized	Compound NOT metabolized	Compound NOT metabolized	Compound NOT metabolized	Compound NOT metabolized
CCCc1nc2c(C)cc(-c3nc4ccccc4n3C)cc2n1Cc1ccc(-c2ccccc2C(=O)O)cc1	Compound NOT metabolized	Compound metabolized	–	–	Compound NOT metabolized	Compound NOT metabolized	Compound NOT metabolized	Compound NOT metabolized	Compound NOT metabolized	Compound NOT metabolized	Compound NOT metabolized	–	Compound NOT metabolized	Compound metabolized	Compound NOT metabolized	Compound NOT metabolized	Compound metabolized	Compound metabolized	–
CC(=O)CC(c1ccccc1)c1c(O)c2ccccc2oc1=O (stereo not given) [WARFARIN]	Compound NOT metabolized	–	Compound NOT metabolized	Compound NOT metabolized	Compound NOT metabolized	Compound NOT metabolized	Compound NOT metabolized	Compound NOT metabolized	Compound NOT metabolized	Compound NOT metabolized	Compound NOT metabolized	Compound NOT metabolized	Compound NOT metabolized	Compound NOT metabolized	Compound NOT metabolized	–	Compound NOT metabolized	Compound metabolized	Compound NOT metabolized
CCCN(CCC)CCc1cccc2c1CC(=O)N2 [ROPINIROLE]	Compound NOT metabolized	Compound NOT metabolized	Compound NOT metabolized	Compound NOT metabolized	Compound NOT metabolized	Compound NOT metabolized	Compound NOT metabolized	Compound NOT metabolized	Compound NOT metabolized	Compound NOT metabolized	Compound NOT metabolized	Compound NOT metabolized	Compound NOT metabolized	Compound NOT metabolized	Compound NOT metabolized	–	Compound NOT metabolized	Compound NOT metabolized	Compound NOT metabolized
CCCCCCOC(=O)/N=C(/N)c1ccc(NCc2nc3cc(C(=O)N(CCC(=O)OCC)c4ccccn4)ccc3n2C)cc1.CS(=O)(=O)O [DABIGATRAN ETEXILATE MESYLATE]	Compound NOT metabolized	–	Compound NOT metabolized	Compound NOT metabolized	Compound NOT metabolized	Compound NOT metabolized	Compound NOT metabolized	Compound NOT metabolized	–	Compound NOT metabolized	Compound NOT metabolized	Compound NOT metabolized	Compound NOT metabolized	Compound NOT metabolized	Compound NOT metabolized	Compound NOT metabolized	Compound NOT metabolized	Compound NOT metabolized	Compound NOT metabolized
Cc1cn([C@H]2C[C@H](N=[N+]=[N-])[C@@H](CO)O2)c(=O)[nH]c1=O [ZIDOVUDINE]	Compound NOT metabolized	Compound NOT metabolized	Compound NOT metabolized	Compound NOT metabolized	Compound NOT metabolized	Compound NOT metabolized	Compound NOT metabolized	–	Compound NOT metabolized	Compound NOT metabolized	Compound NOT metabolized	–	Compound NOT metabolized	Compound metabolized	–	Compound NOT metabolized	Compound metabolized	Compound metabolized	Compound NOT metabolized
C[C@@H](CO)NC(=O)[C@@H]1C=C2c3cccc4[nH]cc(c34)C[C@H]2N(C)C1.O=C(O)/C=C\C(=O)O [ERGONOVINE MALEATE]	Compound metabolized	Compound metabolized	Compound metabolized	–	Compound metabolized	Compound NOT metabolized	Compound metabolized	Compound NOT metabolized	Compound NOT metabolized	Compound metabolized	Compound NOT metabolized	Compound metabolized	Compound metabolized	Compound NOT metabolized	Compound NOT metabolized	–	Compound metabolized	Compound metabolized	–
